{
  "source": "patent US20060052365A1",
  "about": "“Protease inhibitors” (priority 2002, published 2006)",
  "data": [
    {"units": {"melting point": "°C"}, "values": [
      {"smiles": "O=C(N[C@@H](CC1CCCC1)C(=O)NC1CCCN(C(=O)OCc2ccccc2)CC1=O)c1ccco1", "note": "(stereo partly drawn) [Example 61, 4-{(S)-3-Cyclopentyl-2-[(1-furan-2-yl-methanoyl)-amino]-propanoylamino}-3-oxo-azepane-1-carboxylic acid benzyl ester]", "melting point": "72 to 74"},
      {"smiles": "O=C(N[C@@H](CC1CCCC1)C(=O)NC1CCCN(C(=O)OCc2ccccc2)CC1=O)c1ccco1", "note": "(stereo partly drawn) [Example 62, 4-{(S)-3-Cyclopentyl-2-[(1-furan-2-yl-methanoyl)-amino]-propanoylamino)-3-oxo-azepane-1-carboxylic acid benzyl ester]", "melting point": "66 to 68"},
      {"smiles": "O=C(N[C@@H](CC1CCCC1)C(=O)NC1CCCN(S(=O)(=O)c2ccccn2)CC1=O)c1ccco1", "note": "(stereo partly drawn) [Example 63, Furan-2-carboxylic acid {(S)-2-cyclopentyl-1-[3-oxo-1-(pyridine-2-sulfonyl)-azepan-4-ylcarbamoyl]ethyl}-amide]", "melting point": "81 to 84"},
      {"smiles": "O=C(N[C@@H](CC1CCCC1)C(=O)NC1CCCN(S(=O)(=O)c2ccccn2)CC1=O)c1ccco1", "note": "(stereo partly drawn) [Example 64, Furan-2-carboxylic acid {(S)-2-cyclopentyl-1-[3-oxo-1-(pyridine-2-sulfonyl)-azepan-4-ylcarbamoyl]ethyl}-amide]", "melting point": "77 to 80"},
      {"smiles": "CS(=O)(=O)N1CCCC(NC(=O)[C@H](CC2CCCC2)NC(=O)c2ccco2)C(=O)C1", "note": "(stereo partly drawn) [Example 65, Furan-2-carboxylic acid [(S)-2-cyclopentyl-1-(1-methanesulfonyl-3-oxo-azepan-4ylcarbamoyl)-ethyl]-amide]", "melting point": "167 to 170"},
      {"smiles": "CS(=O)(=O)N1CCCC(NC(=O)[C@H](CC2CCCC2)NC(=O)c2ccco2)C(=O)C1", "note": "(stereo partly drawn) [Example 66, Furan-2-carboxylic acid [(S)-2-cyclopentyl-1-(1-methanesulfonyl-3-oxo-azepan-4-ylcarbamoyl)-ethyl]-amide]", "melting point": "158 to 161"},
      {"smiles": "O=C(N[C@@H](CC1CCCC1)C(=O)NC1CCCN(S(=O)(=O)c2ccccc2)CC1=O)c1ccco1", "note": "(stereo partly drawn) [Example 67, Furan-2-carboxylic acid [(S)-1-(1-benzenesulfonyl-3-oxo-azepan-4 ylcarbamoyl)-2-cyclopentyl-ethyl]-amide]", "melting point": "88 to 90"},
      {"smiles": "O=C(N[C@@H](CC1CCCC1)C(=O)NC1CCCN(S(=O)(=O)c2ccccc2)CC1=O)c1ccco1", "note": "(stereo partly drawn) [Example 68, Furan-2-carboxylic acid [(S)-1-(1-benzenesulfonyl-3-oxo-azepan-4-ylcarbamoyl)-2-cyclopentyl-ethyl]-amide]", "melting point": "166 to 167"},
      {"smiles": "O=C(N[C@@H](CC1CCCC1)C(=O)NC1CCCN(C(=O)c2ccco2)CC1=O)c1ccco1", "note": "(stereo partly drawn) [Example 69, Furan-2-carboxylic acid {(S)-2-cyclopentyl-1-[1-(1-furan-2-yl-methanoyl)-3-oxo-azepan-4-ylcarbamoyl]-ethyl}-amide]", "melting point": "88 to 89"},
      {"smiles": "O=C(N[C@@H](CC1CCCC1)C(=O)NC1CCCN(C(=O)c2ccco2)CC1=O)c1ccco1", "note": "(stereo partly drawn) [Example 70, Furan-2-carboxylic acid {(S)-2-cyclopentyl-1-[1-(1-furan-2-yl-methanoyl)-3-oxo-azepan-4-ylcarbamoyl]-ethyl}-amide]", "melting point": "85 to 88"},
      {"smiles": "O=C(N[C@@H](CC1CCCC1)C(=O)NC1CCCN(C(=O)c2ccccc2)CC1=O)c1ccco1", "note": "(stereo partly drawn) [Example 71, Furan-2-carboxylic acid {(S)-2-cyclopentyl-1-[3-oxo-1-(1-phenyl-methanoyl)-azepan-4-ylcarbamoyl]-ethyl}-amide]", "melting point": "101 to 103"},
      {"smiles": "O=C(N[C@@H](CC1CCCC1)C(=O)NC1CCCN(C(=O)c2ccccc2)CC1=O)c1ccco1", "note": "(stereo partly drawn) [Example 72, Furan-2-carboxylic acid {(S)-2-cyclopentyl-1-[3-oxo-1-(1-phenyl-methanoyl)-azepan-4-ylcarbamoyl]-ethyl}-amide]", "melting point": "97 to 100"}
    ]}
  ]
}
